# The source made the active and inactive calls. The calls are words filed in the database; no cut-off is given here.
# Columns and labels:
# [1] = molecular target: T1, Protein cereblon/Stimulator of interferon genes protein (Mus musculus) (UniProt Q3TBT3+Q8C7D2); assay: In vivo inhibition of STING signaling pathway in C57BL/6J mouse assessed as inhibition of cisplatin-induced IL-1 beta mRNA expression in kidney at 25 to 50 mg/kg by qPCR analysis; type: functional, organism-based; details: dose 25-50 mg/kg
# T1 sequence (Q8C7D2 whole entry, looked up, one chain of several): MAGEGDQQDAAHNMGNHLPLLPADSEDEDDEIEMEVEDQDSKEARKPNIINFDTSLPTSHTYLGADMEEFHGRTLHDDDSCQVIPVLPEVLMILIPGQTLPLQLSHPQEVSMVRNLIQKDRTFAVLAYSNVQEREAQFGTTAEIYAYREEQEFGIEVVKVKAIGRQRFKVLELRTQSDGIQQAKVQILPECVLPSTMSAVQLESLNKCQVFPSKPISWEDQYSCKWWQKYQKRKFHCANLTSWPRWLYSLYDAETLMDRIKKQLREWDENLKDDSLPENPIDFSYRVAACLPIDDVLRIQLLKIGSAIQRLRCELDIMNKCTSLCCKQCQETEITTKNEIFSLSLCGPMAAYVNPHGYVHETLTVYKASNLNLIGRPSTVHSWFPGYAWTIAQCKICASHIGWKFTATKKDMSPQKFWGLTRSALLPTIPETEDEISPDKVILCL
# Mus musculus [2] = assay: Anti-inflammatory activity against C57BL/6J mouse assessed as inhibition of cisplatin-induced hepatic impairment by measuring restoration of gamma-GT activity at 25 to 50 mg/kg; type: functional, organism-based; details: dose 25-50 mg/kg
# [3] = molecular target: T1, Protein cereblon/Stimulator of interferon genes protein (Mus musculus); assay: In vivo inhibition of STING signaling pathway in C57BL/6J mouse assessed as inhibition of cisplatin-induced IL-6 mRNA expression in kidney at 25 to 50 mg/kg by qPCR analysis; type: functional, organism-based; details: dose 25-50 mg/kg
# Mus musculus [4] = assay: Anti-inflammatory activity against C57BL/6J mouse assessed as inhibition of cisplatin-induced hepatic impairment by measuring restoration of ALT activity at 25 to 50 mg/kg; type: functional, organism-based; details: dose 25-50 mg/kg
# [5] = molecular target: Protein cereblon/Signal transducer and activator of transcription 3 (Homo sapiens) (UniProt P40763+Q96SW2); assay: PROTAC activity at CRBN/STAT3 in human THP-1 cells assessed as induction of STAT3 degradation at 2.5 to 40 uM incubated for 24 hrs by western blot analysis; type: cell-based; details: dose 2.5-40 µM
# Protein cereblon/Signal transducer and activator of transcription 3 (Homo sapiens), sequence (P40763 2-770 limits assumed): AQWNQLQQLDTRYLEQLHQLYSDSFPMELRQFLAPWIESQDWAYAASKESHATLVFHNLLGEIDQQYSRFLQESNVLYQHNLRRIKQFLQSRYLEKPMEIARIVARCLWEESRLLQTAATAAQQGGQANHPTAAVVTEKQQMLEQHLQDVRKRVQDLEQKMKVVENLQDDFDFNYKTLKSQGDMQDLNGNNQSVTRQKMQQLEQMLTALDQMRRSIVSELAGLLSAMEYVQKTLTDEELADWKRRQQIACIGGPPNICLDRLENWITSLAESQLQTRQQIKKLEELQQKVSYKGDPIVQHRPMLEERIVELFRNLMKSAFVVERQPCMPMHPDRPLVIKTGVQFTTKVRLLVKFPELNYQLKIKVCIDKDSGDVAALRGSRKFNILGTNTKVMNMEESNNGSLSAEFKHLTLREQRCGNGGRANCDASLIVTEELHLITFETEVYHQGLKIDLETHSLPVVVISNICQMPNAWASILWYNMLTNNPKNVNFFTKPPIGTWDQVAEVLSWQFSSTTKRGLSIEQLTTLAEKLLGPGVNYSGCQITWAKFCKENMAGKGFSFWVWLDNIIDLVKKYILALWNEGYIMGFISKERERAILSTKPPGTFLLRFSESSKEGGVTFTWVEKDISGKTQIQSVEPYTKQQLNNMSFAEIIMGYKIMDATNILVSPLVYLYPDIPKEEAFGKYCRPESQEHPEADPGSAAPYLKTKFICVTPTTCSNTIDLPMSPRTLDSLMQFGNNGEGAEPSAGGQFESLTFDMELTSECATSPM
# Protein cereblon/Signal transducer and activator of transcription 3 (Homo sapiens), sequence (Q96SW2 whole entry partner): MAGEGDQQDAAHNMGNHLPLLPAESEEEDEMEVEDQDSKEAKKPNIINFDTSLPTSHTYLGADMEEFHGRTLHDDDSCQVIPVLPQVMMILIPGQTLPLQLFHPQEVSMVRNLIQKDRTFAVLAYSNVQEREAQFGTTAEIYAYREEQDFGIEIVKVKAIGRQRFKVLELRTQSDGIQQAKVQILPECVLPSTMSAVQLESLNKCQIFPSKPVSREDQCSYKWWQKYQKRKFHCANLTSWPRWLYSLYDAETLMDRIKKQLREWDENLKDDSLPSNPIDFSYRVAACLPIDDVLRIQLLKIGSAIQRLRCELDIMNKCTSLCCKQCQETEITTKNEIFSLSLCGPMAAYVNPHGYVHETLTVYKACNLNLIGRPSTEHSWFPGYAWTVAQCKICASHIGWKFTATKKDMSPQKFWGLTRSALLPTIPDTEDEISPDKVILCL
# [6] = molecular target: T1, Protein cereblon/Stimulator of interferon genes protein (Mus musculus); assay: In vivo inhibition of STING signaling pathway in C57BL/6J mouse assessed as inhibition of cisplatin-induced TNF-alpha mRNA expression in kidney at 25 to 50 mg/kg by qPCR analysis; type: functional, organism-based; details: dose 25-50 mg/kg
# [7] = Toxicity against cisplatin-induced acute kidney injury C57BL/6J mouse model assessed as effect on heart morphology at 25 to 50 mg/kg by Hematoxylin-Eosin staining based microscopic analysis; type: organism-based; details: in vivo, dose 25-50 mg/kg
# HUVEC = assay: Cytotoxicity against HUVEC assessed as effect on cell viability at <10 uM incubated for 48 hrs by MTT assay; type: toxicity, cell-based; details: human
# [8] = molecular target: T2, Protein cereblon/Stimulator of interferon genes protein (Homo sapiens, UniProt Q96SW2+Q86WV6); assay: PROTAC activity at CRBN/STING in human THP-1 cells assessed as induction of STING degradation at 10 uM incubated for 24 hrs by western blot analysis; type: cell-based
# T2 sequence (Q86WV6 whole entry, looked up): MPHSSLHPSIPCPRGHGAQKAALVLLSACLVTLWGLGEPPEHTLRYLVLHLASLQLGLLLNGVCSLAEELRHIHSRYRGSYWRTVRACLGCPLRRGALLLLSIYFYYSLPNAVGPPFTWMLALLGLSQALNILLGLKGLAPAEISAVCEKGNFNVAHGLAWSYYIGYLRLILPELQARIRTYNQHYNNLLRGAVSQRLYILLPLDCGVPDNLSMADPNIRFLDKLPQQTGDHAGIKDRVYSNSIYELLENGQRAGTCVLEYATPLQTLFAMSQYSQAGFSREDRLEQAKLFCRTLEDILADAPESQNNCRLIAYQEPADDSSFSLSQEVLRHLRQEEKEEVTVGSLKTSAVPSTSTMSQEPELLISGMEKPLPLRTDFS
# T2 sequence (Q96SW2 whole entry, looked up): as the sequence (Q96SW2 whole entry partner) above
# HEK-293T = assay: Cytotoxicity against HEK293T cells assessed as effect on cell viability at <10 uM incubated for 48 hrs by MTT assay; type: toxicity, cell-based; details: human
# [9] = Toxicity against cisplatin-induced acute kidney injury C57BL/6J mouse model assessed as decrease in body weight at 25 to 50 mg/kg; type: organism-based; details: in vivo, dose 25-50 mg/kg
# [10] = molecular target: T1, Protein cereblon/Stimulator of interferon genes protein (Mus musculus); assay: In vivo inhibition of STING signaling pathway in C57BL/6J mouse assessed as inhibition of cisplatin-induced CXCL10 mRNA expression in kidney at 25 to 50 mg/kg by qPCR analysis; type: functional, organism-based; details: dose 25-50 mg/kg
# [11] = molecular target: T1, Protein cereblon/Stimulator of interferon genes protein (Mus musculus); assay: PROTAC activity at CRBN/STING in mouse RAW264.7 cells assessed as induction of STING degradation at 0.33 to 30 uM incubated for 24 hrs by western blot analysis; type: cell-based; details: dose 0.33-30 µM
# [12] = molecular target: T3, Stimulator of interferon genes protein (Mus musculus) (UniProt Q3TBT3); assay: Inhibition of STING in mouse RAW264.7 cells assessed as reduction in DMXAA-induced IFN-beta mRNA expression at 5 to 20 uM pretreated for 1 hr followed by stimulation with DMXAA for 24 hrs by qRT-CPR analysis; type: cell-based; details: dose 5-20 µM, time 25.0 hrs
# T3 sequence (whole entry): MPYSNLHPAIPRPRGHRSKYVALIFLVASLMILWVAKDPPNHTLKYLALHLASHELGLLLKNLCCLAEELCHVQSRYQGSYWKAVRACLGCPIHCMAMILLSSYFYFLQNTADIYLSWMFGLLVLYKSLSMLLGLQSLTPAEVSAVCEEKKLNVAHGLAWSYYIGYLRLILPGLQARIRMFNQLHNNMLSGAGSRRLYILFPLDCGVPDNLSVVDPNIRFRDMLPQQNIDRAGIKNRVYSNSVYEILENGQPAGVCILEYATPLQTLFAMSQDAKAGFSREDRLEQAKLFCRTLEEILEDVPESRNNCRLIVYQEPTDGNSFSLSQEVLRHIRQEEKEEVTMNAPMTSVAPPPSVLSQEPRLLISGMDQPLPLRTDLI
# [13] = molecular target: T2, Protein cereblon/Stimulator of interferon genes protein; assay: PROTAC activity at CRBN/STING in human THP-1 cells assessed as inhibition of cGAMP-induced IFN-beta mRNA expression incubated for 1 hr followed by stimulation with cGAMP for 24 hrs by qRT-PCR analysis; type: cell-based; details: dose 5-20 µM, time 25.0 hrs
# [14] = molecular target: T2, Protein cereblon/Stimulator of interferon genes protein; assay: PROTAC activity at CRBN/STING in human THP-1 cells assessed as inhibition of cGAMP-induced IRF3 phosphorylation incubated for 24 hrs followed by stimulation with cGAMP for 24 hrs by western blot analysis; type: cell-based; details: dose 0.3-20 µM, time 48.0 hrs
# Mus musculus [15] = assay: Anti-inflammatory activity against C57BL/6J mouse assessed as inhibition of cisplatin-induced hepatic impairment by measuring restoration of AST activity at 25 to 50 mg/kg; type: functional, organism-based; details: dose 25-50 mg/kg
# [16] = molecular target: T2, Protein cereblon/Stimulator of interferon genes protein; assay: PROTAC activity at CRBN/STING in human THP-1 cells assessed as inhibition of cGAMP-induced TNF-alpha mRNA expression incubated for 1 hr followed by stimulation with cGAMP for 24 hrs by qRT-PCR analysis; type: cell-based; details: dose 5-20 µM, time 25.0 hrs
# [17] = molecular target: T2, Protein cereblon/Stimulator of interferon genes protein; assay: PROTAC activity at CRBN/STING in human THP-1 cells assessed as inhibition of cGAMP-induced ISG15 mRNA expression incubated for 1 hr followed by stimulation with cGAMP for 24 hrs by qRT-PCR analysis; type: cell-based; details: dose 5-20 µM, time 25.0 hrs
# [18] = Toxicity against cisplatin-induced acute kidney injury C57BL/6J mouse model assessed as effect on liver morphology at 25 to 50 mg/kg by Hematoxylin-Eosin staining based microscopic analysis; type: organism-based; details: in vivo, dose 25-50 mg/kg
# [19] = Stability of the compound in human plasma assessed as parent compound remaining at 400 ug/ml measured after 24 hrs by HPLC analysis; type: ADME, cell-free; details: at 400 µg/mL, read-out: Stability
# [20] = molecular target: T2, Protein cereblon/Stimulator of interferon genes protein; assay: PROTAC activity at CRBN/STING in human THP-1 cells assessed as inhibition of cGAMP-induced CXCL10 mRNA expression incubated for 1 hr followed by stimulation with cGAMP for 24 hrs by qRT-PCR analysis; type: cell-based; details: dose 5-20 µM, time 25.0 hrs
# [21] = molecular target: T3, Stimulator of interferon genes protein (Mus musculus); assay: Inhibition of STING in mouse RAW264.7 cells assessed as reduction in SR717-induced IRF3 phosphorylation at 0.3 to 20 uM pretreated for 1 hr followed by stimulation with SR717 for 24 hrs by western blot analysis; type: cell-based; details: dose 0.3-20 µM, time 25.0 hrs
# [22] = molecular target: T3, Stimulator of interferon genes protein (Mus musculus); assay: Inhibition of STING in mouse RAW264.7 cells assessed as reduction in SR717-induced TBK1 phosphorylation at 0.3 to 20 uM pretreated for 1 hr followed by stimulation with SR717 for 24 hrs by western blot analysis; type: cell-based; details: dose 0.3-20 µM, time 25.0 hrs
# Mus musculus [23] = assay: Anti-inflammatory activity against cisplatin-induced acute kidney injury C57BL/6J mouse model assessed as animal survival rate at 25 to 50 mg/kg measured at 72 hrs post-cisplatin administration (reference value: 66.7%); type: functional; details: dose 25-50 mg/kg
smiles,measurement,setting,value
O=C1CCC(N2C(=O)c3cccc(OCc4cn(CCCCCC(=O)OCCc5ccc(NC(=O)c6ccc([N+](=O)[O-])o6)cc5)nn4)c3C2=O)C(=O)N1 (stereo not given),inhibition,[1],Active
same,Activity,Mus musculus [2],Active
same,inhibition,[3],Active
same,Activity,Mus musculus [4],Active
same,Activity,[5],inactive
same,inhibition,[6],Active
same,Activity,[7],Non-Toxic
same,Activity,HUVEC,Non-Toxic
same,Activity,[8],82%
same,Activity,HEK-293T,Non-Toxic
same,Activity,[9],Toxic
same,inhibition,[10],Active
same,Activity,[11],inactive
same,inhibition,[12],Dose-Dependent Effect
same,Activity,[13],Dose-Dependent Effect
same,Activity,[14],Dose-Dependent Effect
same,Activity,Mus musculus [15],Active
same,Activity,[16],Dose-Dependent Effect
same,Activity,[17],Dose-Dependent Effect
same,Activity,[18],Non-Toxic
same,"remaining at 24 h, 400 ug/ml",[19],~66%
same,Activity,[20],Dose-Dependent Effect
same,inhibition,[21],Dose-Dependent Effect
same,inhibition,[22],Dose-Dependent Effect
same,Survival,Mus musculus [23],100%

# From ChEMBL document CHEMBL6127068, “Discovery of novel nitrofuran PROTAC-like compounds as dual inhibitors and degraders targeting STING” (Eur J Med Chem, 2024)
